Results published in patent US20150038707A1, “PROCESS FOR MAKING CGRP RECEPTOR ANTAGONISTS” (Merck Sharp & Dohme Corp., priority 2012, published 2015).

Tests used:
Susceptible An. Gambiae = assay: Bottle toxicity assay (Example 8), susceptible mosquitoes; type: in vivo, Anopheles gambiae
Method: (§1) Several compounds were tested to determine their toxic effect on knockdown resistant Anopheles gambiae mosquitoes and susceptible mosquitoes. Acetone and different amounts of pesticides were added to 250 ml bottles. In one bottle, only acetone was added as a control. The bottles were rotated in all directions while uncapped until all acetone was evaporated and the insecticide was coated onto the inside surfaces of the bottle. A number of knockdown resistant Anopheles gambiae mosquitoes were added to the bottle. The number of dead mosquitoes was recorded at 1 hour and 24 hours.

[1] = test system: Ae. Aegypti, That strain (pyrethroid tolerant); assay: Contact irritancy on pyrethroid tolerant mosquitoes (Example 5); type: in vivo
Method: (§2) Four compounds of formula (I) were tested for contact irritancy (i.e., movement away from the source after physical contact) at low doses on female Aedes aegypti (Thailand strain) mosquitoes. The contact irritant response was determined by use of the contact irritant assay disclosed by Grieco et al. in “A New Classification System for the Actions of IRS Chemicals Traditionally Used for Malaria Control,” Plos One, Issue 8 (2007) (available at www.plosone.org). The assay used was a cylindrical assembly that included a metal treatment end to which 10 mosquitoes were introduced and a clear receiving chamber. The treatment end included a netting strip (nylon organdy) that was treated with the insecticide of interest at the relevant dose. A butterfly valve separated the treatment end from the remainder of the assembly.
(§3) Each composition was applied to the netting strip at a varied dose via a 1.5 ml acetone solution. Four (4) treatment concentrations were used—0.0025 nmol/cm^2, 0.025 nmol/cm^2, 0.25 nmol/cm^2 and 2.5 nmol/cm^2. Netting was allowed to dry for 15 minutes prior to placement in the cylinder. Control assays were performed with netting treated with acetone only.
(§4) For each run, 10 mosquitoes were transferred into the treatment end of the assembly and, after 30 seconds, the butterfly valve was opened. The valve was closed after 10 minutes and the number of mosquitoes in the clear end (i.e., the number of escaped mosquitoes) was tested.
(§5) The contact irritancy protocol of Example 2 was used to determine contact irritancy against mosquitoes (Ae. Aegypti) that had acquired metabolic resistance against pyrethroids. Alphacypermethrin and transfluthrin were also tested. Three mosquito strains were tested—Houston which is pyrethroid susceptible, That which is pyrethroid tolerant and Isla Mujer which is metabolically pyrethroid resistant.

[2] = test system: Ae. Aegypti strains Houston, That and Isla Mujer; assay: Spatial repellency on metabolically resistant mosquitoes (Example 6); type: in vivo
Method: (§6) The four compounds of formula I described in Example 2 were tested for spatial repellency (directed movement away from the chemical source without the insect making physical contact with the treated surface) at low doses on female Aedes aegypti (Thailand strain) mosquitoes. The spatial repellency response was determined by use of the spatial repellency assay disclosed by Grieco et al. in “A New Classification System for the Actions of IRS Chemicals Traditionally Used for Malaria Control” in Plos One, Issue 8 (2007) (available at www.plosone.org) which is incorporated herein by reference for all relevant and consistent purposes. The assay used was a cylindrical assembly that included a treatment chamber at one end and a control chamber at the other end. The treatment chamber included a netting strip (nylon organdy) that was treated with the insecticide of interest at the relevant dose. The treatment chamber and control chamber were connected by a clear cylinder and were separated from the clear cylinder by butterfly valves. Twenty (20) mosquitoes were introduced into the clear central chamber and the butterfly valves were opened after 30 seconds. After 10 minutes, the valves were closed and the number of mosquitoes in each chamber was counted.
as §5, with “spatial repellency” for “contact irritancy”, “3” for “2”, “DDT” for “Alphacypermethrin”

[3] = test system: female Aedes aegypti (Thailand strain) mosquitoes; assay: Contact irritancy and spatial repellency screening (Example 4); type: in vivo; settings: Dosage 25 nmol/cm^2; mapped with 3000 other compounds
Method: as §2, §6
Dosage was 25 nmol/cm^2. Several known compounds were also mapped for comparison—alphacypermethrin, cypermethrin, propoxur, bendiocarb, permethrin, SS220, DDT, deet and chlorpyrifos.

[4] = test system: Ae. Aegypti, Isla Mujer strain (metabolically pyrethroid resistant); assay: Contact irritancy on metabolically resistant mosquitoes (Example 5); type: in vivo
Method: as §2, §3, §4, §5

[5] = test system: Ae. aegypti Thai strain (pyrethroid tolerant); assay: Toxicity assay on treated netting (Example 7), Thai strain; type: in vivo
Method: (§7) Several compounds were tested to determine their toxic effect on Ae. aegypti mosquitoes. Three mosquito strains were tested—Houston which is pyrethroid susceptible, That which is pyrethroid tolerant and Isla Mujer which is metabolically pyrethroid resistant.
(§8) The toxicity assay involved a single chamber to which treated netting was added. Twenty (20) mosquitoes were transferred to the chamber. After 1 hour, the number of knocked down mosquitoes was recorded and all mosquitoes were transferred to holding cartoons. The mosquitoes were given a 10% sucrose-soaked cotton ball and returned to the insectary. Mortaility was measured after 24 hours. A control assay using acetone-treated netting was used. Six replicates were performed at each treatment concentration.

[6] = test system: Ae. aegypti Isla mujeres strain (metabolically pyrethroid resistant); assay: Toxicity assay on treated netting (Example 7), Isla mujeres strain; type: in vivo
Method: as §7, §8

KDR Resisant An. Gambiae = assay: Bottle toxicity assay (Example 8), knockdown resistant mosquitoes; type: in vivo, Anopheles gambiae
Method: as §1

[7] = Dose 0.025 μg/bottle, Strain Tested F122, Time 1 hour
[8] = Dose 0.025 μg/bottle, Strain Tested F122, Time 24 hours
[9] = Dose 0.025 μg/bottle, Strain Tested F123, Time 1 hour
[10] = Dose 0.025 μg/bottle, Strain Tested F123, Time 24 hours
[11] = Dose 0.25 μg/bottle, Strain Tested F122, Time 1 hour
[12] = Dose 0.25 μg/bottle, Strain Tested F122, Time 24 hours
[13] = Dose 0.25 μg/bottle, Strain Tested F123, Time 1 hour
[14] = Dose 0.25 μg/bottle, Strain Tested F123, Time 24 hours
[15] = Dose 2.5 μg/bottle, Strain Tested F122, Time 1 hour
[16] = Dose 2.5 μg/bottle, Strain Tested F122, Time 24 hours
[17] = Dose 2.5 μg/bottle, Strain Tested F123, Time 1 hour
[18] = Dose 2.5 μg/bottle, Strain Tested F123, Time 24 hours
[19] = Dose 0.025 nm/cm^2, Time 1 hour
[20] = Dose 0.025 nm/cm^2, Time 24 hours
[21] = Dose 0.0725 nm/cm^2, Time 1 hour
[22] = Dose 0.0725 nm/cm^2, Time 24 hours
[23] = Dose 0.25 nm/cm^2, Time 24 hours
[24] = Dose 2.5 nm/cm^2, Time 24 hours

## CC1(C)C(C=C(Cl)Cl)C1C(=O)OCc1ccc(F)c(C(F)(F)F)c1F (centres unmarked) [Compound 1406]
Susceptible An. Gambiae; [7]
  Susceptible An. Gambiae (% dead (SE)): 100%
Susceptible An. Gambiae; [8]
  Susceptible An. Gambiae (% dead (SE)): 100%
Susceptible An. Gambiae; [9]
  Susceptible An. Gambiae (% dead (SE)): 100%
Susceptible An. Gambiae; [10]
  Susceptible An. Gambiae (% dead (SE)): 100%
Susceptible An. Gambiae; [11]
  Susceptible An. Gambiae (% dead (SE)): 100%
Susceptible An. Gambiae; [12]
  Susceptible An. Gambiae (% dead (SE)): 100%
Susceptible An. Gambiae; [13]
  Susceptible An. Gambiae (% dead (SE)): 100%
Susceptible An. Gambiae; [14]
  Susceptible An. Gambiae (% dead (SE)): 100%
Susceptible An. Gambiae; [15]
  Susceptible An. Gambiae (% dead (SE)): 100%
Susceptible An. Gambiae; [16]
  Susceptible An. Gambiae (% dead (SE)): 100%
Susceptible An. Gambiae; [17]
  Susceptible An. Gambiae (% dead (SE)): 100%
Susceptible An. Gambiae; [18]
  Susceptible An. Gambiae (% dead (SE)): 100%
[1]
  contact irritancy, tolerant strain (FIG. 4): contact irritants for tolerant strains
[2]
  spatial repellency, all strains (FIG. 5): spatial repellants for all strains
[3]
  contact irritancy and spatial repellency relative to screened compounds (FIG. 3): superior contact irritancy and spatial repellency relative to most screened compounds
[4]
  contact irritancy, resistant strain (FIG. 4): effective in resistant strains
[5]; [19]
  Thai (% dead (SE)): 100%
[5]; [20]
  Thai (% dead (SE)): 98.3%
[5]; [21]
  Thai (% dead (SE)): 100%
[5]; [22]
  Thai (% dead (SE)): 100%
[5]; Dose 0.25 nm/cm^2, Time 1 hour
  Thai (% dead (SE)): 96.6%
[5]; [23]
  Thai (% dead (SE)): 100%
[5]; Dose 2.5 nm/cm^2, Time 1 hour
  Thai (% dead (SE)): 100%
[5]; [24]
  Thai (% dead (SE)): 100%
[6]; Dose 0.00725 nm/cm^2, Time 1 hour
  Isla mujeres (% dead (SE)): 0%
[6]; Dose 0.00725 nm/cm^2, Time 24 hours
  Isla mujeres (% dead (SE)): 7.77%
[6]; [19]
  Isla mujeres (% dead (SE)): 100%
[6]; [20]
  Isla mujeres (% dead (SE)): 42.77%
[6]; [21]
  Isla mujeres (% dead (SE)): 96.29%
[6]; [22]
  Isla mujeres (% dead (SE)): 25.37%
[6]; Dose 0.125 nm/cm^2, Time 1 hour
  Isla mujeres (% dead (SE)): 100%
[6]; Dose 0.125 nm/cm^2, Time 24 hours
  Isla mujeres (% dead (SE)): 100%
[6]; Dose 0.25 nm/cm^2, Time 1 hour
  Isla mujeres (% dead (SE)): 100%
[6]; [23]
  Isla mujeres (% dead (SE)): 100%
[6]; Dose 2.5 nm/cm^2, Time 1 hour
  Isla mujeres (% dead (SE)): 100%
[6]; [24]
  Isla mujeres (% dead (SE)): 100%
[6]; summary of Table 2
  toxicity to resistant populations compared with standard compounds: more toxic to resistant populations than permethrin, matfluthrin and transfluthrin
KDR Resisant An. Gambiae; [7]
  KDR Resisant An. Gambiae (% dead (SE)): 100%
KDR Resisant An. Gambiae; [8]
  KDR Resisant An. Gambiae (% dead (SE)): 100%
KDR Resisant An. Gambiae; [9]
  KDR Resisant An. Gambiae (% dead (SE)): 100%
KDR Resisant An. Gambiae; [10]
  KDR Resisant An. Gambiae (% dead (SE)): 100%
KDR Resisant An. Gambiae; [11]
  KDR Resisant An. Gambiae (% dead (SE)): 100%
KDR Resisant An. Gambiae; [12]
  KDR Resisant An. Gambiae (% dead (SE)): 100%
KDR Resisant An. Gambiae; [13]
  KDR Resisant An. Gambiae (% dead (SE)): 100%
KDR Resisant An. Gambiae; [14]
  KDR Resisant An. Gambiae (% dead (SE)): 100%
KDR Resisant An. Gambiae; [15]
  KDR Resisant An. Gambiae (% dead (SE)): 100%
KDR Resisant An. Gambiae; [16]
  KDR Resisant An. Gambiae (% dead (SE)): 100%
KDR Resisant An. Gambiae; [17]
  KDR Resisant An. Gambiae (% dead (SE)): 100%
KDR Resisant An. Gambiae; [18]
  KDR Resisant An. Gambiae (% dead (SE)): 100%
KDR Resisant An. Gambiae; summary of Table 3
  effectiveness against knockdown resistant strains: effective against knockdown resistant strains
